We go through 1 molecule from patent US7141661B2, “Non-steroidal anti-inflammatory drug activated gene with anti-tumorigenic properties” (The United States of America as represented by the …, priority 2000, dated 2006).

Type in all cases: cell-based, human
In assay [1] the test system is NAG-1. Description: Northern blot analysis of NAG-1 mRNA expression in HCT-116 cells. Conditions: HCT-116, 24 hr in absence of serum; relative NAG-1 mRNA over vehicle control (1.0); tested over the concentration range listed. Here is the method:
Upon reaching 60–80% confluence in 10 cm plates, the cells were treated at indicated concentrations and times with either different NSAIDs or PPARγ ligands in the absence of serum. Total RNAs were isolated using TRIzol reagent (Life Technologies) according to the manufacturer's protocol. For Northern blot analysis, […] of total RNA was denatured at 55° C. for 15 min and separated in a 1.2% agarose gel containing 2.2 M formaldehyde, and transferred to Hybond-N membrane ([…]). After fixing the membrane by UV, blots were prehybridized in hybridization solution (Rapid-hyb buffer, […]) for 1 hr at 65° C. followed by hybridization with cDNA labeled with [α-^32P]dCTP by random primer extension (DECAprimeII kit, Ambion). The probes used were either full-length NAG-1 fragment or PTGFB clone (generously provided by Dr. Bento-Soar of the University of Iowa). After 4 hr incubation at 65° C., the blots were washed once with 2×SSC/0.1% SDS at RT and twice with 0.1×SSC/0.1% SDS at 65° C. Messenger RNA abundance Was estimated by intensities of the hybridization bands of autoradiographs using Scion Image (Scion). Equivalent loading of RNA samples was confirmed by hybridizing the same blot with a ^32P-labeled b-actin probe which recognizes RNA of approximately 2 kb.
To determine whether other NSAIDs increased apoptosis and NAG-1 expression, tests were conducted to determine whether variants of NSAIDs induced NAG-1 gene expression and NSAID-induced apoptosis. Aspirin, ibuprofen, indomethacin, and sulindac sulfide were selected since they are known COX inhibitors. […] HCT-116 cells were treated with different NSAIDs (vehicle, 0.2% DMSO; aspirin, 10 mM; ibuprofen, 1 mM; sodium salicylate, 5 mM; sulindac sulfide, 50 μM; sulindac, 40 μM; acetaminophen, 100 μM) for 24 hr in the absence of serum. Northern analysis was performed using NAG-1 and β-actin as probes. Total RNAs were isolated from NSAID-treated HCT-116 cells after 24 hr treatment and Northern blot was performed using NAG-1 cDNA as a probe (data not shown). […] Each of the doses were as follows: aspirin (1, 5, 10 mM); ibuprofen (100, 500, 1000 μM); salicylate (1, 2.5, 5 mM); sulindac sulfide (1, 10, 50 μM); sulindac (10, 20, 40 μM); acetaminophen (10, 50, 100 μM). After 48 hr treatment with NSAIDs in the presence of serum, cells were harvested and assayed as described in FIG. 1C. Apoptosis detected by PI staining was measured by FACS, as known in the art (FIG. 2A; HCT-116 cells were treated with different NSAIDs (vehicle, 0.2% DMSO; Aspirin, 10 mM; Ibuprofen, 1 mM; Sodium Salicylate, 5 mM; Sulindac Sulfide, 50 μM; Sulindac, 40 μM; Acetaminophen, 100 μM) for 24 hr in the absence of serum. Northern analysis was performed using NAG-1 and β-actin as probes. The open bars represent the relative expression of NAG-1 mRNA over the control (vehicle). The hatched bars represent the relative apoptosis ratio over vehicle treatment by PI staining methods. N=3±S.D.).
In the Table below, HCT-116 cells were treated with different NSAIDs (vehicle, 0.2% DMSO) for 24 hr in the absence of serum. Northern analysis was performed using NAG-1 and β-actin as probes. The data represent relative expression of NAG-1 mRNA over the control (1.0). Each NSAID was tested at 3 different concentrations and maximally effective concentration used for apoptosis determination. Apoptosis ratio by PI staining was measured by FACS. After 48 hr treatment with NSAIDs in the presence of serum, cells were harvested and assayed. The data represent relative apoptosis ratio over vehicle treatment by PI staining methods. TACS™ Annexin V-FITC kit was also used to confirm apoptosis.

The test system of assay [2] is HCT-116 cells. Description: Apoptosis and cell cycle by PI staining / FACS in HCT-116 cells. Conditions: HCT-116, 48 hr in presence of serum, maximally effective concentration, FACS. Here is the method:
To determine whether NAG-1 gene expression is associated with NSAID-induced apoptosis or altered cell cycle kinetics, flow cytometric analysis of the distribution of cells at various stages of the cell cycle was performed. Apoptosis and cell cycle kinetics of INDO-treated HCT-116 cells were measured at different time points. HCT-116 cells were treated with INDO, stained with PI, and analyzed by flow cytometry. Seven thousand five hundred cells were examined by flow cytometry by gating on an area versus width dot plot to exclude cell debris and cell aggregates. Apoptosis is represented by the fold increase in sub-G1 population over 0 hr treatment.
The DNA content for NSAIDs, PPARγ ligand, and vehicle treated HCT-116 cells was determined by FACS. Cells were plated at a density of 4×10^5 cells/well in 2 ml of medium in 6 well plates, incubated for 16 h, and then treated with NSAIDs or TGZ in the presence of serum. After treatment, the cells were harvested, washed with PBS, fixed by the slow addition of cold 70% ethanol to a total of 1 ml, and stored overnight at 4° C. The fixed cells were pelleted, washed once with PBS, and stained in 1 ml of 20 μg/ml of propidium iodide (PI), 1 mg/ml RNase in PBS for 20 min. Seven thousand five hundred cells were examined by flow cytometry using Becton Dickinson FACSort equipped with CellQuest software, by gating on an area versus width dot plot to exclude cell debris and cell aggregates. Each cell cycle distribution was analyzed by the McCycle program using one cell cycle parameter. Apoptosis was measured based on the level of sub-diploid DNA contained in cells following treatment with NSAIDs or TGZ using CellQuest software.
Northern analysis was performed using NAG-1 and β-actin as probes. The data represent relative expression of NAG-1 mRNA over the control (1.0). Each NSAID was tested at 3 different concentrations and maximally effective concentration used for apoptosis determination. Apoptosis ratio by PI staining was measured by FACS. […] The data represent relative apoptosis ratio over vehicle treatment by PI staining methods. TACS™ Annexin V-FITC kit was also used to confirm apoptosis.

The test system of assay [3] is NAG-1. The assay can be described thus: Northern blot NAG-1 induction in A549 lung carcinoma cells. Conditions: 10 mM, 24 hr. Here is the method: (§1) NSAID-induced apoptosis is not restricted to colorectal cells, as NSAIDs can induce apoptosis in breast, lung, leukemia, and prostate cell lines. To test for the induction of NAG-1 by NSAIDs in different cell lines, A549 lung epithelial cells, MCF-7 mammary cells, PC-3 prostate cancer cells, and U937 leukemia cell lines were treated with several concentrations of INDO and aspirin. Then, as described above, Northern blot analysis was performed. […] Quiescent cells were grown for 24 hr in the presence of indicated NSAIDs. Total RNAs were isolated and subjected to Northern analysis using NAG-1 and β-actin as probes. The blots contained 10 μg of total RNA from INDO- or Aspirin (Asp)-treated cells with indicated doses. “V” indicates total RNAs from vehicle (0.2% DMSO) treated cells. The results shown are representative of those obtained in two experiments.

The subject of assay [4] is NAG-1. The assay can be described thus: Northern blot NAG-1 induction in MCF-7 breast carcinoma cells. Conditions: MCF-7 cells, 10 mM, 24 hr. Here is the method: as §1
Assay [5] has as its system NAG-1. Description: Northern blot NAG-1 induction in U937 leukemia cells. Conditions: 24 hr. Here is the method:
as §1

Assay [6] deals with NAG-1. Description: Northern blot NAG-1 induction in PC-3 prostate cells. Conditions: PC-3 cells, 10 mM, 24 hr. Here is the method:
as §1

Each structure is given as a SMILES string.

As to `CC(=O)Oc1ccccc1C(=O)O` [Aspirin], the “NAG-1 Induction (mRNA) Fold” value in assay [1] is listed as 3.5 Fold. Also, the “Apoptosis (PI Staining), relative apoptosis ratio over vehicle” value in assay [2] is on record as 3.5 ± 0.451. The NAG-1 induction entry in assay [3], in assay [4], in assay [5] (10 mM) and in assay [6] was “high NAG-1 induction” throughout. In assay [5] (5 mM), the NAG-1 expression entry is “significantly increased”.
